# Test results taken from patent US20230295162A1 (EÖTVÖS LORÁND TUDOMÁNYEGYETEM, priority 2020, published 2023).
# Where two headings read alike, the source gives them in different places.
# Tests used:
# [1] = tested on: EBC-1 lung cancer cell line; test: High-throughput screening, CellTiter-Glo cell viability assay at 100 nM; type: cell-based, human; details: Homo sapiens, EBC-1, HTS, compounds at 100 nM, 72 h, read-out: cytotoxicity expressed in IC50, EBC-1 (results of High throughput screening)
# [2] = tested on: H2228 lung cancer cell line; test: as above; type: cell-based, human; details: Homo sapiens, NCI-H2228, HTS, compounds at 100 nM, 72 h, read-out: cytotoxicity expressed in IC50, H2228 (results of High throughput screening)
# Panc-1 human cell line = test: Cytotoxicity on Panc-1, xCELLigence SP, IC50 after 24 h, 48 h, 72 h and 96 h (Example 22)
# [3] = tested on: FaDu (pharynx, squamous cell carcinoma) cells; test: Cell viability assay, CellTiter-Glo (Example 21); type: cell-based, human; details: 72 h treatment
# Experimental: (§1) Effect of the selected compounds on cancer cell viability was measured via CellTiter-Glo® luminescent cell viability assay (Promega, Madison, WI, USA) according to the manufacturer's instructions. Cells were plated onto a flat-bottomed, white 96 well plate (BRANDplates®, cat. no.: 781965). Density of the seeded cells was optimized based on their size and growth rate, as the follows: Panc-1:750 cells/well; DU 145, PC-3, Capan-1, MIA PaCa-2, SCC-25, FaDu and EBC-1: 1000 cells/well; LNCaP, Detroit 562, MDA-MB-231 and MDA-MB-453 1500 cells/well. […] After the treatment, the luminescence signal was recorded using a microplate reader (BioTek Synergy 2 Multi-Mode Reader, BioTek, Winooski, VT, USA). Dose-response curves were generated by GraphPad Prism 8.4.2. software using a non-linear regression model (variable slope, four parameters), (see FIGS. 12-51).
# [4] = tested on: MDA-MB-453 (breast, carcinoma) cells; test: Cell viability assay, CellTiter-Glo (Example 21); type: cell-based, human; details: 72 h treatment
# Experimental: as §1
# [5] = tested on: LNCaP (prostate, carcinoma) cells; test: Cell viability assay, CellTiter-Glo (Example 21); type: cell-based, human; details: 72 h
# Experimental: as §1
# [6] = tested on: EBC-1 (lung, squamous cell carcinoma) cells; test: Cell viability assay, CellTiter-Glo (Example 21); type: cell-based, human; details: 72 h treatment
# Experimental: as §1
# [7] = tested on: Capan-1 (pancreas, adenocarcinoma) cells; test: Cell viability assay, CellTiter-Glo (Example 21); type: cell-based, human; details: 72 h treatment
# Experimental: as §1
# [8] = tested on: Detroit 562 (pharynx, carcinoma) cells; test: Cell viability assay, CellTiter-Glo (Example 21); type: cell-based, human; details: 72 h treatment
# Experimental: as §1
# [9] = tested on: PC-3 (prostate, adenocarcinoma) cells; test: Cell viability assay, CellTiter-Glo (Example 21); type: cell-based, human; details: 72 h treatment
# Experimental: as §1
# [10] = tested on: Panc-1 (pancreas, carcinoma) cells; test: Cell viability assay, CellTiter-Glo (Example 21); type: cell-based, human; details: 72 h treatment
# Experimental: as §1
# Detroit 562 cell line = test: Additional in vitro IC50 tests (Table 3); type: cell-based; details: Homo sapiens
# Experimental: (§2) Cell lines were maintained according to the instructions provided by ATCC (https://www.lgcstandards-atcc.org/) in a 5% CO2 humidified incubator maintained at 37° C. temperature. Effects of compounds on cell viability were measured via CellTiter-Glo® luminescent cell viability assay (Promega, Madison, WI, USA) Cells were plated at 1000 cells/well onto a flat-bottomed, white 96 well plate (BRANDplates, cat. no.: 781965). […] After the treatment, medium was removed and CellTiter-Glo® reagent was added. The luminescence signal was recorded using a microplate reader (BioTek Synergy 2 Multi-Mode Reader, BioTek, Winooski, VT, USA).
# (§3) Cell viability data (% of untreated control cells) was evaluated with Microsoft Excel. Dose-response curves (using a non-linear regression model, log (inhibitor) vs response, variable slope) were generated and IC50 values were determined using Graph Pad Prism 5.02 software (GraphPad Software, San Diego, CA, USA).
# EBC-1 cell line = test: Additional in vitro IC50 tests (Table 3); type: cell-based; details: Homo sapiens
# Experimental: as §2, §3
# Fadu cell line = test: Additional in vitro IC50 tests (Table 3); type: cell-based; details: Homo sapiens
# Experimental: as §2, §3
# H2228 cell line = test: Additional in vitro IC50 tests (Table 3); type: cell-based; details: Homo sapiens, NCI-H2228
# Experimental: as §2, §3
# SCC-25 cell line = test: Additional in vitro IC50 tests (Table 3); type: cell-based; details: Homo sapiens
# Experimental: as §2, §3
# [11] = tested on: Panc1 pancreatic cancer cell line; test: CellTiter-Glo IC50 (Example 19); type: cell-based; details: Homo sapiens, PANC-1, 72 h
# Experimental: Some representative imipridones and ONC212 as reference were further tested on the following human malignant cell lines: PC3 and LNCap (prostate carcinoma); BxPC3, MiaPaCa2 and Panc1 (pancreatic cancer); A549, HCC827, H1993 and H520 (lung carcinoma); MDA-MB-453 and MDA-MB-231 (breast cancer) (see Table 2 and FIGS. 1-11).
# as §2, §3
# [12] = PANC-1, 72 h, read-out: IC50 (72 h) [nM]
# [13] = PANC-1, 96 h, read-out: IC50 (96 h) [nM]
SMILES,IC50 [1] [nM],IC50 [2] [nM],IC50 (Panc-1 human cell line; [12]) [nM],IC50 (Panc-1 human cell line; [13]) [nM],"MDA-MB-453 (breast, carcinoma) cell viability (% of control) ([4]; 3.7 nM)","MDA-MB-453 (breast, carcinoma) cell viability (% of control) ([4]; 11.1 nM)","MDA-MB-453 (breast, carcinoma) cell viability (% of control) ([4]; 100 nM)","MDA-MB-453 (breast, carcinoma) cell viability (% of control) ([4]; 300 nM)",LNCaP cell viability ([5]; 3.7 nM),LNCaP cell viability ([5]; 11.1 nM),LNCaP cell viability ([5]; 100 nM),LNCaP cell viability ([5]; 300 nM),"EBC-1 (lung, squamous cell carcinoma) cell viability (% of control) ([6]; 3.7 nM)","EBC-1 (lung, squamous cell carcinoma) cell viability (% of control) ([6]; 11.1 nM)","EBC-1 (lung, squamous cell carcinoma) cell viability (% of control) ([6]; 100 nM)","EBC-1 (lung, squamous cell carcinoma) cell viability (% of control) ([6]; 300 nM)","Capan-1 (pancreas, adenocarcinoma) cell viability (% of control) ([7]; 3.7 nM)","Capan-1 (pancreas, adenocarcinoma) cell viability (% of control) ([7]; 11.1 nM)","Capan-1 (pancreas, adenocarcinoma) cell viability (% of control) ([7]; 100 nM)","Capan-1 (pancreas, adenocarcinoma) cell viability (% of control) ([7]; 300 nM)",also measured
"O=C1C2=C(CCN(Cc3cccc(F)c3)C2)N2CCN=C2N1Cc1ccc(C(F)(F)F)cc1 [I/3, reference compound]",< 100,< 100,45.3 ± 3.34,22.6 ± 0.856,110.3 ± 7.7 % of control,97.0 ± 13.3 % of control,33.2 ± 2.0 % of control,29.8 ± 1.5 % of control,98.7 ± 7.4 % of control,95.0 ± 7.4 % of control,13.8 ± 1.7 % of control,12.7 ± 1.2 % of control,97.8 ± 4.0 % of control,96.3 ± 1.4 % of control,25.1 ± 0.2 % of control,22.2 ± 0.1 % of control,102.7 ± 6.9 % of control,101.5 ± 5.5 % of control,38.7 ± 2.8 % of control,33.0 ± 2.2 % of control,"FaDu (pharynx, squamous cell carcinoma) cell viability (% of control) ([3]; 3.7 nM): 101.6 ± 3.4 % of control; FaDu (pharynx, squamous cell carcinoma) cell viability (% of control) ([3]; 11.1 nM): 100.9 ± 5.9 % of control; FaDu (pharynx, squamous cell carcinoma) cell viability (% of control) ([3]; 100 nM): 26.2 ± 7.9 % of control; FaDu (pharynx, squamous cell carcinoma) cell viability (% of control) ([3]; 300 nM): 22.4 ± 5.9 % of control; Detroit 562 (pharynx, carcinoma) cell viability (% of control) ([8]; 3.7 nM): 99.5 ± 8.4 % of control; Detroit 562 (pharynx, carcinoma) cell viability (% of control) ([8]; 11.1 nM): 44.3 ± 11.0 % of control; Detroit 562 (pharynx, carcinoma) cell viability (% of control) ([8]; 100 nM): 28.9 ± 5.3 % of control; Detroit 562 (pharynx, carcinoma) cell viability (% of control) ([8]; 300 nM): 28.7 ± 4.1 % of control; PC-3 (prostate, adenocarcinoma) cell viability (% of control) ([9]; 3.7 nM): 100.8 ± 4.0 % of control; PC-3 (prostate, adenocarcinoma) cell viability (% of control) ([9]; 11.1 nM): 110.2 ± 4.1 % of control; PC-3 (prostate, adenocarcinoma) cell viability (% of control) ([9]; 100 nM): 34.7 ± 1.0 % of control; PC-3 (prostate, adenocarcinoma) cell viability (% of control) ([9]; 300 nM): 32.3 ± 2.6 % of control; Panc-1 (pancreas, carcinoma) cell viability (% of control) ([10]; 3.7 nM): 105.8 ± 4.0 % of control; Panc-1 (pancreas, carcinoma) cell viability (% of control) ([10]; 11.1 nM): 105.7 ± 4.2 % of control; Panc-1 (pancreas, carcinoma) cell viability (% of control) ([10]; 100 nM): 59.9 ± 17.3 % of control; Panc-1 (pancreas, carcinoma) cell viability (% of control) ([10]; 300 nM): 53.9 ± 6.5 % of control"
"O=C1C2=C(CCN(Cc3cc(F)cc(F)c3)C2)N2CCN=C2N1Cc1ccc(C(F)(F)F)cc1 [I/30, 7-(3,5-Difluorobenzyl)-4-(4-(trifluoromethyl)benzyl)-2,4,6,7,8,9-hexahydroimidazo[1,2-a]pyrido[3,4-e]pyrimidin-5(1H)-one]",< 100,< 100,2.08 ± 0.267,0.517 ± 0.0232,58.0 ± 24.4 % of control,34.8 ± 3.3 % of control,31.1 ± 1.8 % of control,28.9 ± 1.0 % of control,29.6 ± 2.5 % of control,15.0 ± 0.4 % of control,11.4 ± 0.6 % of control,11.3 ± 1.1 % of control,76.4 ± 2.2 % of control,24.8 ± 1.1 % of control,21.3 ± 0.6 % of control,20.1 ± 0.0 % of control,100.8 ± 5.3 % of control,38.4 ± 4.5 % of control,34.0 ± 2.8 % of control,33.1 ± 1.7 % of control,"IC50 (Detroit 562 cell line): 2 nM; IC50 (EBC-1 cell line): 5 nM; IC50 (Fadu cell line): 5 nM; IC50 (H2228 cell line): 5 nM; IC50 (SCC-25 cell line): 6 nM; Detroit 562 (pharynx, carcinoma) cell viability (% of control) ([8]; 3.7 nM): 31.9 ± 6.7 % of control; Detroit 562 (pharynx, carcinoma) cell viability (% of control) ([8]; 11.1 nM): 27.0 ± 5.5 % of control; Detroit 562 (pharynx, carcinoma) cell viability (% of control) ([8]; 100 nM): 24.7 ± 2.9 % of control; Detroit 562 (pharynx, carcinoma) cell viability (% of control) ([8]; 300 nM): 28.7 ± 2.5 % of control; PC-3 (prostate, adenocarcinoma) cell viability (% of control) ([9]; 3.7 nM): 78.9 ± 4.6 % of control; PC-3 (prostate, adenocarcinoma) cell viability (% of control) ([9]; 11.1 nM): 36.6 ± 1.8 % of control; PC-3 (prostate, adenocarcinoma) cell viability (% of control) ([9]; 100 nM): 32.1 ± 3.6 % of control; PC-3 (prostate, adenocarcinoma) cell viability (% of control) ([9]; 300 nM): 31.3 ± 2.5 % of control; Panc-1 (pancreas, carcinoma) cell viability (% of control) ([10]; 3.7 nM): 100.8 ± 3.4 % of control; Panc-1 (pancreas, carcinoma) cell viability (% of control) ([10]; 11.1 nM): 54.4 ± 3.5 % of control; Panc-1 (pancreas, carcinoma) cell viability (% of control) ([10]; 100 nM): 46.4 ± 3.1 % of control; Panc-1 (pancreas, carcinoma) cell viability (% of control) ([10]; 300 nM): 49.1 ± 0.2 % of control; IC50 [11]: 3 nM"
